Results: patent US20240216336A1, “CLOTRIMAZOLE AS A TREATMENT FOR IMMUNODEFICIENCY DISORDERS” (Northwestern University, priority 2020, published 2024)

Key:
[1] = system: RAW264.7 cells; assay: Inflammatory cytokine mRNA expression (quantitative RT-PCR) in RAW264.7 cells; assay type: cell-based, mouse
Protocol: (§1) RAW264.7 cells were a gift from Jason A. Wertheim MD, PhD. HepG2 and HEK293T cells were obtained from ATCC. RAW264.7, HEK293T, and HepG2 cells were cultured in Dulbecco's Modified Eagle's Medium (DMEM) (Corning) supplemented with 10% FBS (Atlanta Biologicals), 2 mM glutamine (HyClone), and 1 mM sodium pyruvate (Corning). […]
(§2) RNA was isolated from cells or tissues using RNA-STAT60 (Teltest) followed by chloroform extraction and precipitation. Reverse transcription was carried out using qScript cDNA Synthesis Kit (Quanta Bio). The resulting cDNA was amplified quantitatively using PerfeCTa SYBR Green Mix (Quanta Bio) on a 7500 Fast Real-time PCR System (Applied Biosystems). The relative gene expression was determined using differences in Ct values between gene of interest and house-keeping control genes. Complete list of primers can be found in Key Reagents Table (Table 1).

[2] = target: GAPDH (Mus musculus, UniProt P16858); assay: GAPDH activity normalized to total protein in RAW264.7 cells; assay type: cell-based; design: endogenous in cells; host or cells: RAW264.7; details: ±CLT (20 μM)
Chain of GAPDH (P16858 whole entry): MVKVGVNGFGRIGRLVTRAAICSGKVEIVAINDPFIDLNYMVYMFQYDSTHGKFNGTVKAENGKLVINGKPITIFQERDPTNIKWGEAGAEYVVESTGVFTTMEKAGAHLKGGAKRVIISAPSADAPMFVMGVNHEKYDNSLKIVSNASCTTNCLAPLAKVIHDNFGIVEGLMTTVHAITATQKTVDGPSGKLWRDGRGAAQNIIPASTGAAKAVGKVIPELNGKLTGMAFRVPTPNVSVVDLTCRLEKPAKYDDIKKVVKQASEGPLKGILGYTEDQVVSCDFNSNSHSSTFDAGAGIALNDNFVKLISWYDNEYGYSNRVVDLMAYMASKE
Protocol: as §1
(§3) The following kits were used according to the manufacturer's instructions: Promega NADP/NADPH quantification kit (G9081) and […] (G9071); Glyceraldehyde-3-Phosphate Dehydrogenase Activity Assay kit (abcam); ELISAs for IL-1β (DY401), IL-6 […].

[3] = target: T1, HK1 (Mus musculus, UniProt P17710); assay: Immunofluorescence of HK1 and mitochondria (MT-Red) with colocalization analysis; assay type: cell-based; details: WT BMDMs; CLT (20 μM)
T1 construct: IF of HK1 and mitochondria (MT-Red) imaging in RAW264.7 cells±clotrimazole (CLT) (20 μM); endogenous in cells; the running text says WT BMDMs
T1 sequence (P17710 1-918 isoform P17710-3): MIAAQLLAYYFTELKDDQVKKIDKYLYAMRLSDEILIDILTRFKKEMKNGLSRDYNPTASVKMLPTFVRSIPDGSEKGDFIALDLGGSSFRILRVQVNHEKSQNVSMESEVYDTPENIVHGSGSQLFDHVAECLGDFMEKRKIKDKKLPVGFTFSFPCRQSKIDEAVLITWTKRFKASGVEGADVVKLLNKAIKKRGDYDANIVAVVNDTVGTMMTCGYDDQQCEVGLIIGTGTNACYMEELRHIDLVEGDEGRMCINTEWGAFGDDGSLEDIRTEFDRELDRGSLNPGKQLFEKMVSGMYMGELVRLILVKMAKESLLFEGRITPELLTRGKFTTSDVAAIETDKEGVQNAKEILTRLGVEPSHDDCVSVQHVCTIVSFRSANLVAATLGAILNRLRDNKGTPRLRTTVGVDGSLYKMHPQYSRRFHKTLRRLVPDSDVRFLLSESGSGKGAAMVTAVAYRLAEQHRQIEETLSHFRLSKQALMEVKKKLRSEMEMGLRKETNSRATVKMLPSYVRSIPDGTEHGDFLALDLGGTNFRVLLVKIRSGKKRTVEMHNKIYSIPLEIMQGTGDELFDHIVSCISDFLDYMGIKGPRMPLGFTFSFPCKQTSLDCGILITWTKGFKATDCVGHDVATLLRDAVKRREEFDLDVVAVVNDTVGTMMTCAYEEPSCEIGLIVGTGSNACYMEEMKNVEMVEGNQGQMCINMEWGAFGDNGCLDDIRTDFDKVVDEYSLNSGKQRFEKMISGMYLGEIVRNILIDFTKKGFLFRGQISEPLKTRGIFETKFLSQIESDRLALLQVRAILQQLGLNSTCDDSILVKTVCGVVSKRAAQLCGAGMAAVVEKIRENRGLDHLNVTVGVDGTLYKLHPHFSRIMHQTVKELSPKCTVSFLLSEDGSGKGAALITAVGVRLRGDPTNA
Protocol: Glass-bottom confocal dishes (35 mm; VWR) were coated with 60 nM fibronectin (Sigma-Aldrich), diluted in 0.1% gelatin overnight. Before plating cells, coated confocal dishes were washed twice with PBS. BMDMs (100,000 cells/well), PMs (100,000 cells/well), HepG2 (50,000 cells/well), or RAW264.7 (50,000 cells/well) cells were plated in their respective growth media (complete DMEM or RPMI) and allowed to settle overnight before immunofluorescence (IF) staining. For fixed cell immunofluorescence (IF), cells were plated in 6-well plates (Corning) containing 15 mm glass coverslips (Fisher-Scientific) coated in gelatin and fibronectin. Prior to fixation, growth media was removed and cells were washed 2× with PBS. Cells were fixed with 1 ml of ice-cold 4% formaldehyde for 10 min at room temperature (4% formaldehyde prepared from 16% stock and diluted in PBS). After fixing the cells, plates were washed with PBS 2× and permeabilized with 0.3% triton-X-100 in PBS for 10 min at room temperature. Then, cells were blocked with 10% FBS/PBS for 1 hour at room temperature and subsequently treated with primary antibody diluted in 10% FBS/PBS solution over-night. The next day, secondary antibody was diluted in 10% FBS/PBS at 1:1000 and incubated for 2 hrs at room temperature. […] Images were quantified using ImageJ.

[4] = system: BMDMs from ΔE1HK1 mice; assay: IL-1β ELISA from BMDM media; assay type: cell-based, mouse; details: 4 hrs LPS (200 ng/ml) ± 6AN (1 mM) or OT (50 μM), then 30 min ATP (2.5 mM)
Protocol: BMDMs were isolated from ΔE1HK1 and WT mice as previously reported (Rodriguez et al., 2019). Briefly, bone marrow was isolated from the tibia and femur of 8-10-week-old mice by puncturing one end of the femur and tibia with a 27g needle and placing it in a 0.5 ml tube with a hole punched in the bottom. The 0.5 ml tube containing the bone was then placed in a 1.75 ml tube and centrifuged at 5,000×g for 3.5 minutes. Bone marrow was then collected into the 1.75 ml tube and resuspend in 1 ml of RBC lysis buffer (abcam) for 1 minute and then transferred to a 50 ml tube with 4 ml RBC lysis buffer and incubated for 4 minutes. Next, 35 ml of PBS was added and centrifuged at 300×g for 5 min and supernatant was then decanted and cell pellet was re-suspended in complete RPMI with 20 ng/ml mCSF (Preprotech). Cells were counted using a hemocytometer and plated in 10 cm tissue culture plates at a density of 3-million cells/plate. […]
[…] Cell supernatant was collected and analyzed by ELISA according to manufacturer's instructions for IL-1β (DY401), IL-6 (DY406), and TNFα (DY410).
as §3

[5] = system: BMDMs; assay: Inflammatory cytokine mRNA expression (quantitative RT-PCR) in BMDMs; assay type: cell-based, mouse
Protocol: BMDMs were isolated from ΔE1HK1 and WT mice as previously reported (Rodriguez et al., 2019). Briefly, bone marrow was isolated from the tibia and femur of 8-10-week-old mice by puncturing one end of the femur and tibia with a 27g needle and placing it in a 0.5 ml tube with a hole punched in the bottom. The 0.5 ml tube containing the bone was then placed in a 1.75 ml tube and centrifuged at 5,000×g for 3.5 minutes. Bone marrow was then collected into the 1.75 ml tube and resuspend in 1 ml of RBC lysis buffer (abcam) for 1 minute and then transferred to a 50 ml tube with 4 ml RBC lysis buffer and incubated for 4 minutes. Next, 35 ml of PBS was added and centrifuged at 300×g for 5 min and supernatant was then decanted and cell pellet was re-suspended in complete RPMI with 20 ng/ml mCSF (Preprotech). Cells were counted using a hemocytometer and plated in 10 cm tissue culture plates at a density of 3-million cells/plate. Cells were cultured with 20 ng/mL mCSF to induce differentiation into BMDMs. Media was changed every 2 days and BMDMs were harvested by scraping on day 6 and plated in 12 well plates at a density of 1-million cells/well for mRNA extraction experiments. BMDMs were stimulated in the same manner as peritoneal macrophages (LPS dose for BMDMs was 200 ng/ml).
as §2

[6] = CLT (20 μM) treated cells vs vehicle treated controls
[7] = 4 hr 6AN (1 mM) or OT (50 μM), ±LPS (200 ng/ml)
[8] = 16 hrs IFNγ priming, then 4 hrs LPS (200 ng/ml) ± 6AN (1 mM) or OT (50 μM)
[9] = RAW264.7 cells, koningic acid, LPS

`Clc1ccccc1C(c1ccccc1)(c1ccccc1)n1ccnc1` [CLT, Clotrimazole] was tested, and the “IL-1β mRNA after LPS stimulation” value [1, 6] was “significant increase”, the “IL-6 mRNA after LPS stimulation” value [1, 6] was “significant increase” and the “TNFα mRNA after LPS stimulation” value [1, 6] was “significant increase”. The “cytokine mRNA levels at baseline” value ([1]; CLT (20 μM), no LPS) was “minimal change”, the “production of inflammatory cytokines including IL-1β, TNFα, and IL-6” value ([1]; macrophages in vitro (summary statement)) was “elevated production” and the “GAPDH activity in RAW264.7 cells after LPS treatment” value [2] was “significant decrease”. For the same molecule, the “HK1 dislocation from the mitochondria” value [3] was “significant increase”.

`Cc1ncc(C[n+]2csc(CCO)c2C)c(=O)[nH]1` [OT, oxythiamine] was tested, and the “IL-1β protein release (ELISA), higher release in ΔE1HK1 BMDMs” value [4] was “reversed”, the “increase in IL-1β mRNA levels in BMDMs of ΔE1HK1 mice” value [5, 7] was “abolished” and the “increase in IL-6 mRNA levels in BMDMs of ΔE1HK1 mice” value [5, 7] was “abolished”. For the same molecule, the “increase in IL-1β mRNA levels in IFN-γ primed BMDMs of ΔE1HK1 mice” value [5, 8] was “rescued” and the “increase in IL-6 mRNA levels in IFN-γ primed BMDMs of ΔE1HK1 mice” value [5, 8] was “rescued”.

In the case of `CC(C)[C@H]1CC[C@@]2(CO2)[C@H]2C(=O)OCC(C(=O)O)=C[C@H]12` [koningic acid], the “IL-1β mRNA expression after LPS treatment” value [1, 9] is reported as “increased”, the “IL-6 mRNA expression after LPS treatment” value [1, 9] is reported as “increased” and the “TNFα mRNA expression after LPS treatment” value [1, 9] is reported as “increased”.
